Laboratory results: patent US9938335B2, “Glucagon and GLP-1 co-agonist compounds” (Eli Lilly and Company, priority 2015, dated 2018)
In brackets after ≈: the same amount, converted by molar mass. Where two headings read alike, the source gives them in different places. Marks after values point to notes of the source that are not given here. Starred links: 1 amine or outer side, 2 acyl side, 3 side chain; linkers in the order of their positions; H or OH if unused. Non-standard residues stand in square brackets, D forms with d. Residues, ends and D or L forms follow the SMILES beside them. Groups on a side chain read outwards from the residue. *: point of attachment. C18 diacid = O=C(O)CCCCCCCCCCCCCCCCC(=O)*; γGlu = O=C(O)[C@H](CCC(=O)[*:2])N[*:1]; AEEA = NCCOCCOCC(=O)O; Aib = CC(C)(N)C(=O)O

What was measured:
hGLP-1-R [1] = molecular target: T1, hGLP-1-R (Homo sapiens, UniProt P43220); experiment: hGLP-1R Binding Assay (SPA radioligand competition, 293HEK membranes); parameters: expressed in transfected cells; host or cells: 293HEK, stably transfected with plasmid phD, Hygromycin-selected; crude plasma membranes; details: read-out: Ki, nM ± SEM at the hGLP-1-R
DIO mice (C57BL/6) [2] = experiment: Glycemic control in DIO mice; format: in vivo, mouse; details: for Blood glucose (mg/dL) post-injection, Mean: male DIO mice, 25 nmol/kg sc once
Experimental: Five to six months old male DIO mice (C57BL/6) from Taconic Biosciences are used in this study. Animals are individually housed in a temperature-controlled (24° C.) facility with a 12 hour light/dark cycle (lights on 6:00), and free access to food and water. After two weeks acclimation to the facility, the mice are randomized to treatment groups (n=7/group) based on their body weight and blood glucose. Mice are injected subcutaneously once with vehicle or compounds (25 nmol/kg). Blood glucose is monitored 2 and 8 hours post-injection and then once a day at 08:00 for 4 days. OGTTs are performed at 44 and 78 hours post the peptide injection. Statistics are analyzed using ANOVA with Dunnett's comparison by JMP 6. Significance is denoted at p≤0.05 vs vehicle.

[3] = Solubility (RP-HPLC and HPLC-SEC, 1 week at 4° C.); format: physicochemical
Experimental: Solubility of compounds of the present invention is measured in an Agilent 1100 HPLC, an Agilent 1200 HPLC and a Nanodrop 2000. The following HPLC columns are used:
(a) RP-HPLC: Waters Symmetry Shield C18, 3.6 um, 4.6×100 mm
(b) HPLC-SEC: Tosoh Biosciences, TSK2000SWXL […]
All peptide concentrations are made at 10 mg/mL in the following:
(a) 10 mM Tris pH 8.0+3 mg/mL m-cresol
(b) 10 mM Tris pH 8.0+3 mg/mL m-cresol+150 mM NaCl
(c) 10 mM Tris pH 8.0+3 mg/mL m-cresol+0.02% Tween-20
5 mL of 10 mg/mL peptide dissolved in 10 mM Tris at pH 8.0 is concentrated to approximately 20 mg/mL using Amicon-ultra 3 kDa MWCO devices. The solution is filtered using Millivex 0.22 μM filters (PVDF membrane) and the final concentration is measured by the NanoDrop spectrometer. This stock solution is used to formulate to the final conditions stated above using 3× m-cresol, 10× NaCl, and 100× Tween-20 stock solutions. A 10 mg/mL PBS solution is also prepared by dissolving directly at 5 mg/mL and concentrating using Amicon-ultra 3 kDa MWCO devices.
Each solution is placed in a refrigerator at 4° C. for 1 week, with analysis by RP-HPLC to assess concentration and HPLC-SEC to assess HMW species formation. Analyses completed at T-0 week and T-1 week.
The solubility of Compounds 1-4 was measured essentially as described in this assay.

hGLP-1-R [4] = molecular target: T1, hGLP-1-R; experiment: Functional hGLP-1-R assay (cAMP HTRF, HEK-293 clonal cell line); format: cell-based; parameters: expressed in transfected cells; host or cells: HEK-293 clonal cell line over-expressing the receptor
Experimental: (§1) After a 60 minute incubation at room temperature, the resulting increase in intracellular cAMP (adenosine 3′,5′-cyclic monophosphate) is quantitatively determined using the CisBio cAMP Dynamic 2 HTRF Assay Kit (62AM4PEJ). cAMP levels within the cell are detected by adding the cAMP-d2 conjugate in cell lysis buffer (20 μl) followed by the antibody anti-cAMP-Eu^3+-Cryptate, also in cell lysis buffer (20 μl).
(§2) A relative EC50 value and percent top (Emax) are derived by non-linear regression analysis using the percent maximal response vs. the concentration of peptide added, fitted to a four-parameter logistic equation (Genedata Screener®).
(§3) Means for EC50 are expressed as Geometric means±standard error of the mean (SEM) with the number of replicates (n) indicated in parenthesis. Means for Emax are expressed as the arithmetic mean±standard error. ND signifies that agonist activity was not detected.

Human Gcg-R = molecular target: T2, Human Gcg-R (Homo sapiens, UniProt P47871); experiment: Functional hGcg-R assay (cAMP HTRF, HEK-293 clonal cell line); format: cell-based
T2 construct: expressed in transfected cells; host or cells: HEK-293 clonal cell line over-expressing the receptor
Experimental: as §1, §2, §3

DIO mice (C57BL/6) [5] = experiment: Chronic treatment in DIO mice (body weight, fat, food intake); format: in vivo, mouse
Method in brief: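 C57BL/6 DIO mice aged 5–6 months, individually housed and randomized (N=7/group) on body weight and NMR fat mass, received SC injections on Days 1, 4, 7, 10 and 13. Body weight and food intake were measured before each injection, with fat mass re-measured by NMR at study end. Percent body-weight change was tested by ANOVA/Dunnett vs vehicle (p≤0.05).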

[6] = Viscosity (Rheosense mVroc Viscometer); format: physicochemical; details: approximately 10 mg/mL peptide in 10 mM Tris + 3 mg/mL m-cresol at pH 8.0; 25° C.; shear rate 1934 s^−1
Experimental: Viscosity of compounds of the present invention is measured in a Rheosense mVroc Viscometer with the following settings:
(a) Syringe size: 500 μL syringe
(b) Flow Rate: 100 μL/min flow rate
(c) Average Temperature: 25° C.
(d) Shear Rate: 1934 s^−1
Dry powder (compound) is weighed out, dissolved in water as a cloudy precipitate, and titrated to approximately pH 8.0 with 1N NaOH. The solution is sonicated and swirled by hand until peptide is in solution. Samples are sterile filtered (0.22 μm PVDF filters). Samples are then analyzed by UV-Vis to assess stock solution concentrations. Solutions are diluted to final concentration using 3× m-cresol in 10 mM Tris pH 8.0 buffer to final concentrations of approximately 10 mg/mL peptide by weight in 10 mM Tris+3 mg/mL m-cresol at pH 8.0. Samples were filtered through 0.22 μm filters immediately prior to viscosity analysis. 25 μL of sample are removed to verify concentration by RP-HPLC before and after analysis.
Water and buffer control samples are measured before and after each sample is analyzed. The instrument is washed with buffer (3×) in between analysis of each sample. The samples are loaded into individual syringes and analyzed. The first measurement is not included in the final calculation to allow for equilibration with the system. Samples are then analyzed in triplicate (n=3).
The viscosity of Compounds 1-4 was measured essentially as described in this assay.

[7] = 15 nmol/kg sc every three days for 15 days
[8] = 30 nmol/kg sc every three days for 15 days

T1 sequence (P43220 24-463): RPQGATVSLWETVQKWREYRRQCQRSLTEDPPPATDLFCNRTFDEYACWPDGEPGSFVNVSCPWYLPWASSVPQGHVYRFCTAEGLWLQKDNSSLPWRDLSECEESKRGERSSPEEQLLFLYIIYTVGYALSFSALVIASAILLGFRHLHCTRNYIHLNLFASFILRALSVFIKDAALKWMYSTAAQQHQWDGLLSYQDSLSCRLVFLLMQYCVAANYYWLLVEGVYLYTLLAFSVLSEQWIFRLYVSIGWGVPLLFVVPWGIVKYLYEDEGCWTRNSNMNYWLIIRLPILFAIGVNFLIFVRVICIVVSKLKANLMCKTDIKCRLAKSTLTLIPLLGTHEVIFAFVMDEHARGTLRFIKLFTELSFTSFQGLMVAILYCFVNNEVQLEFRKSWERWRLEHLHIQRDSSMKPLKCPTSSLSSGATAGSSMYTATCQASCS
T2 sequence (P47871 26-477): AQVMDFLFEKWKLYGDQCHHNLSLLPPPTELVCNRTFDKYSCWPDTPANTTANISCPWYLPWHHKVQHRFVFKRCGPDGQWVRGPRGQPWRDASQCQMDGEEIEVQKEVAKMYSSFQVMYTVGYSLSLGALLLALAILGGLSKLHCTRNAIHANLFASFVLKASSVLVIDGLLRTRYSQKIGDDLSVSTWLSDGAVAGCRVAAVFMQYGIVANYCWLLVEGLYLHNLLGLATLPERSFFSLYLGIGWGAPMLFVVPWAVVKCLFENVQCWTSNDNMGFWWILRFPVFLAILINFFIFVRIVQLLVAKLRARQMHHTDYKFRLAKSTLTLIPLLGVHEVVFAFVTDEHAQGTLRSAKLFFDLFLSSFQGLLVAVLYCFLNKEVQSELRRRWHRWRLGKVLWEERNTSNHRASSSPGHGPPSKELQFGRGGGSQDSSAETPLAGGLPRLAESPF

Ki (hGLP-1-R [1]): 8.68 ± 1.6 nM
solubility at 1 week ([3]; 10 mM Tris pH 8.0 + 3 mg/mL m-cresol + 0.02% Tween-20, Tris pH 8 + 3 mg/mL m-cresol + 0.02% Tween-20): 10000 µg/mL
solubility at 1 week ([3]; 10 mM Tris pH 8.0 + 3 mg/mL m-cresol + 150 mM NaCl, Tris pH 8 + 3 mg/mL m-cresol + 150 mm NaCl): 10000 µg/mL
solubility at 1 week ([3]; 10 mM Tris pH 8.0 + 3 mg/mL m-cresol, Tris pH 8 + 3 mg/mL m-cresol): 10000 µg/mL
solubility at 1 week ([3]; PBS pH 7.4, pH 7.4, read-out: solubility in PBS, pH 7.4): 10000 µg/mL (≈ 2160 µM)
Emax (hGLP-1-R [4]; HEK293): 105 ± 5%
EC50 (hGLP-1-R [4]; cAMP, 60 minute incubation, 0.25% FBS, 0.05% BSA, geometric mean, read-out: Human GLP-1-R EC50, nM ± SEM (n)): 34.3 ± 9.4 nM
Emax (Human Gcg-R; HEK293): 104 ± 5%
EC50 (Human Gcg-R; cAMP, 60 minute incubation, 0.25% FBS, 0.05% BSA, geometric mean, read-out: Human Gcg-R EC50, nM ± SEM, (n)): 15.3 ± 2.2 nM
500 μL syringe Viscosity [6]: 1.03 cP or mPa-s
SMILES: CC(C)C[C@H](NC(=O)[C@H](CC(C)C)NC(=O)[C@H](Cc1c[nH]c2ccccc12)NC(=O)[C@H](CCC(=O)O)NC(=O)[C@@H](NC(=O)[C@H](Cc1ccccc1)NC(=O)[C@H](CCC(=O)O)NC(=O)[C@H](CCCCNC(=O)COCCOCCNC(=O)COCCOCCNC(=O)CC[C@H](NC(=O)CC[C@H](NC(=O)CCCCCCCCCCCCCCCCC(=O)O)C(=O)O)C(=O)O)NC(=O)[C@H](C)NC(=O)[C@H](CCCCN)NC(=O)[C@H](CCCCN)NC(=O)[C@H](CCC(=O)O)NC(=O)[C@H](CC(=O)O)NC(=O)[C@H](CC(C)C)NC(=O)[C@H](Cc1ccc(O)cc1)NC(=O)[C@H](CCCCN)NC(=O)[C@H](CO)NC(=O)[C@H](Cc1ccc(O)cc1)NC(=O)[C@H](CC(=O)O)NC(=O)[C@H](CO)NC(=O)[C@@H](NC(=O)[C@H](Cc1ccccc1)NC(=O)[C@@H](NC(=O)CNC(=O)[C@H](CCC(N)=O)NC(=O)C(C)(C)NC(=O)[C@@H](N)Cc1c[nH]cn1)[C@@H](C)O)[C@@H](C)O)C(C)C)C(=O)N[C@@H](CO)C(=O)NCC(=O)NCC(=O)N1CCC[C@H]1C(=O)N[C@@H](CO)C(=O)N[C@@H](CO)C(=O)NCC(N)=O [Compound 3] (H-H[Aib]QGTFTSDYSKYLDEKKAK([AEEA-AEEA-γGlu-γGlu-C18 diacid])EFVEWLLSGGPSSG-NH2; N-terminus assumed)
44 hours Glucose AUC (% of Vehicle) (DIO mice (C57BL/6) [2]; OGTT 44 hours post-injection, 25 nmol/kg sc): 35* % of Vehicle
78 hours Glucose AUC (% of Vehicle) (DIO mice (C57BL/6) [2]; OGTT 78 hours post-injection, 25 nmol/kg sc): 76* % of Vehicle
glucose excursions post an oral glucose challenge (DIO mice (C57BL/6) [2]; OGTTs at 44 and 78 hours post injection, 25 nmol/kg): lower glucose excursions post an oral glucose challenge at 44 hour
Blood glucose (mg/dL) post-injection, Mean (DIO mice (C57BL/6) [2]; 2 hours post-injection): 173.4 mg/dL
Blood glucose (mg/dL) post-injection, Mean (DIO mice (C57BL/6) [2]; 8 hours post-injection): 81.4 mg/dL
Blood glucose (mg/dL) post-injection, Mean (DIO mice (C57BL/6) [2]; 24 hours post-injection): 96.6 mg/dL
Blood glucose (mg/dL) post-injection, Mean (DIO mice (C57BL/6) [2]; 48 hours post-injection): 95.8 mg/dL
Blood glucose (mg/dL) post-injection, Mean (DIO mice (C57BL/6) [2]; 72 hours post-injection): 104.7 mg/dL
Blood glucose (mg/dL) post-injection, Mean (DIO mice (C57BL/6) [2]; 96 hours post-injection): 141.1 mg/dL
HMW species formation by SEC-HPLC ([3]; 1 week at 4° C.): No observed HMW species formation by SEC-HPLC;
visible precipitation or phase separation ([3]; after 1 week storage at 4° C.): No visible precipitation or phase separation observed after 1 week
Body Fat (% change vs. vehicle from Day 1) (DIO mice (C57BL/6) [5]; [7]): −32* %
Body Weight (% change vs. vehicle from Day 1) (DIO mice (C57BL/6) [5]; [7]): −17* %
Body Fat (% change vs. vehicle from Day 1) (DIO mice (C57BL/6) [5]; [8]): −67* %
Body Weight (% change vs. vehicle from Day 1) (DIO mice (C57BL/6) [5]; [8]): −37* %
